Assay results as given in PMC6599521 (Biochemical pharmacology, 2019).
Read-outs that look alike come from different tables or passages of the source.

Experiments:
[1] = target: murine HCN1 channels (Mus musculus, UniProt O88704); assay type: cell-based; conditions: for Inverse agonist behavior on HCN1 gating (in words): ligand alone; for IC50 (in words): no clear inflection in the concentration response curve, omitted from Figure 4B; for ΔV1/2: paired experiments
[2] = test system: mouse peripheral nerve injury neuropathic pain models; conditions: cited from earlier work
[3] = cited from earlier work
[4] = test system: chimeric mu opiate (μOR-Gqi5) receptors; conditions: up to 100 μM; cited from earlier work
[5] = test system: G-protein coupled inwardly rectifying K+ channels (GIRKs); conditions: in vitro; cited from earlier work
[6] = target: T1, HCN1 channels (Mus musculus, UniProt O88704); assay: Additivity/competition of ligands with 3 μM DTB-P on HCN1 gating; assay type: cell-based, murine; conditions: increasing ligand concentrations plus 3 μM DTB-P
[7] = target: T1, HCN1 channels; assay: Gating model; assay type: cell-based, murine; conditions: for Fold Change of closed state association constant, phenol vs cyclohexanol / Fold Change of open state association constant, phenol vs cyclohexanol / Association constant to closed channels (KC, QC, JC) / Association constant to open channels (KO, QO, JO): common site model S=4; for Association constant to closed channels (KC, QC, JC) / Association constant to open channels (KO, QO, JO): constants and errors divided by 10^4
[8] = test system: GABAA receptors; conditions: cited from earlier work
[9] = test system: α3β glycine receptors; conditions: cited from earlier work
[10] = Hill fit maximal shift of activation midpoint, mean ± SD

Sequence of murine HCN1 channels (O88704 whole entry): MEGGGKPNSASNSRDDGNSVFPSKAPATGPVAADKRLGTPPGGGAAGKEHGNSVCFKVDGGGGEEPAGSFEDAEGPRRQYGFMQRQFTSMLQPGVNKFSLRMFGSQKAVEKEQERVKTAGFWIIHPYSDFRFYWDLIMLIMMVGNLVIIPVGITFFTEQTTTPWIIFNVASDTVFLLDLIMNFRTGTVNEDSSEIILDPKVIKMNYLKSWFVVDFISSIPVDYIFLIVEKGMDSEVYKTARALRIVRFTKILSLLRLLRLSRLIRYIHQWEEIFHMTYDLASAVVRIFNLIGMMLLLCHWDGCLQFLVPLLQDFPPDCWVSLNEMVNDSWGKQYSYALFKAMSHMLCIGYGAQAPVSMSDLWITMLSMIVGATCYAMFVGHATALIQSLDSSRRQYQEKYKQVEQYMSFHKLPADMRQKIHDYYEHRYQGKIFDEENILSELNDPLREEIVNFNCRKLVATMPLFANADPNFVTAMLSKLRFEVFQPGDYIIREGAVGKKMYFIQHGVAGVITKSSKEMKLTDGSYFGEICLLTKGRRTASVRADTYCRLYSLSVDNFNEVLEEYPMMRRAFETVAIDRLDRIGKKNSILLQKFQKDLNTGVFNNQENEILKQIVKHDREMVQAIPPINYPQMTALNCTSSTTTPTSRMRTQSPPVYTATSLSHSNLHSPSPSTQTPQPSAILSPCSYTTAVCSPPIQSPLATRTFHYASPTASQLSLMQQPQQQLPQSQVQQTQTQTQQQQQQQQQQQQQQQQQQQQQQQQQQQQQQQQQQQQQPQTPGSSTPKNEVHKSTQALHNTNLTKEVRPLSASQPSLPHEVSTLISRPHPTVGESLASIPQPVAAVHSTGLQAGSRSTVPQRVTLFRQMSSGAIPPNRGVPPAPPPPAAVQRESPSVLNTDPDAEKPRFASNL
T1 sequence (O88704 whole entry): as above

SMILES: Cc1cccc(C)c1N=C=O [DM-PIC, 2,6-di-methyl phenyl-isocyanate]
- Inverse agonist behavior on HCN1 gating (in words) [1]: ineffective
- IC50 (in words) [1]: ill-defined

SMILES: CC(C)c1cccc(C(C)C)c1O [DIP-P, 2,6-di-iso-propyl phenol, reference compound]
- Anti-hyperalgesia [2]: mechanical and thermal anti-hyperalgesia
- Shift in the V1/2 of HCN1 gating [1]: ~ −40 mV
- h (Hill coefficient) [1]: 0.85 ± 0.11
- ΔV1/2 max [1]: −39.8 ± 2.3 mV
- IC50 ([1]; IC50): 5.8 ± 1.2 µM
- Increase of solubility by 2-hydroxypropyl-β-cyclodextrin (HPβCD) [3]: ≥ 200 fold
- Effect on DAMGO-evoked currents generated by μOR-Gqi5 receptors [4]: inhibit
- Direct effect on GIRKs [5]: no direct effect
- Behavior in the presence of 3 μM DTB-P (in words) [6]: second full inverse

SMILES: CCC(C)c1cccc(C(C)CC)c1O (stereo not drawn) [DSB-P, 2,6-di-sec-butyl phenol]
- Behavior in the presence of 3 μM DTB-P (in words) [6]: low affinity full inverse agonist
- Jc^I closed state association constant ([7]; common site model S=4, fit of data without and with 3 μM DTB-P, not scaled): 3,696 ± 2,948

SMILES: Cc1cccc(C)c1S [DM-PT, 2,6-di-methyl phenyl-thiol]
- Inverse agonist behavior on HCN1 gating (in words) [1]: clear inverse agonist activity

SMILES: CC(C)C1CCCC(C(C)C)C1O (stereo not drawn) [DIP-CH, 2,6-di-iso-propyl cyclohexanol]
- IC50 [1]: 35 ± 21 µM
- ΔV1/2 max [1, 10]: −18.9 ± 3.4 mV
- h (Hill coefficient) ([1]; Hill fit, mean ± SD): 0.76 ± 0.19
- Behavior in the presence of 3 μM DTB-P (in words) [6]: partial inverse agonists
- Fold Change of closed state association constant, phenol vs cyclohexanol [7]: 3.8
- Fold Change of open state association constant, phenol vs cyclohexanol [7]: 1.8

SMILES: CC(C)c1cccc(C(C)C)c1F [DIP-PF, 2,6-di-iso-propyl phenyl-fluorine]
- IC50 [1]: 267 ± 24 µM
- Destabilization of association on replacing OH with F ([1]; from observed IC50 ratio): 2.3 kcal/mol
- Destabilization of association on replacing OH with F ([1]; from partition-corrected IC50 ratio): 4.5 kcal/mol
- Shift in IC50 on replacing OH with F ([1]; ratio of observed aqueous IC50s of DIP-P and DIP-PF): 46 fold
- Shift in IC50 on replacing OH with F ([1]; ratio of partition-corrected IC50s of DIP-P and DIP-PF): 1,870 fold

SMILES: CC(C)(C)C1CCCC(C(C)(C)C)C1O (stereo not drawn) [DTB-CH, 2,6-di-tert-butyl cycloxhexanol]
- ΔV1/2 max [1, 10]: −9.9 ± 1.5 mV
- IC50 ([1]; Hill fit of ΔV1/2 vs concentration, all parameters free, mean ± SD): 11.4 ± 4.2 µM
- h (Hill coefficient) ([1]; Hill fit, mean ± SD): 1.28 ± 0.47
- Behavior in the presence of 3 μM DTB-P (in words) [6]: partial inverse agonists
- Fold Change of closed state association constant, phenol vs cyclohexanol [7]: 5.4
- Fold Change of open state association constant, phenol vs cyclohexanol [7]: 1.8
- Association constant to closed channels (KC, QC, JC) [7]: 4.6 ± 2.0
- Association constant to open channels (KO, QO, JO) [7]: 3.1 ± 1.5

SMILES: Cc1cccc(C)c1O [DM-P, 2,6-di-methyl phenol]
- Inverse agonist behavior on HCN1 gating (in words) [1]: ineffective
- IC50 (in words) [1]: ill-defined

SMILES: CCc1cccc(CC)c1N=C=O [DE-PIC, 2,6-diethyl phenyl-isocyanate]
- Inverse agonist behavior on HCN1 gating (in words) [1]: effective

SMILES: CCC1CCCC(CC)C1O (stereo not drawn) [DE-CH, 2,6-di-ethyl cyclohexanol]
- IC50 [1]: 3000 ± 723 µM
- Inverse agonist behavior on HCN1 gating (in words) [1]: only weakly effective as an inverse agonist
- IC50 (in words) [1]: ill-defined
- Behavior in the presence of 3 μM DTB-P (in words) [6]: neither additivity nor competition

SMILES: CCc1cccc(CC)c1O [DE-P, 2,6-di-ethyl phenol]
- Maximal efficacy lower than the maximal effect of DIP-P and DTB-P [1]: ~ 2 fold
- ΔV1/2 ([1]; 100 μM, n = 8): −21.6 mV
- ΔV1/2 ([1]; 300 μM, n = 9): −21.2 mV
- ΔV1/2 max [1, 10]: −22.1 ± 1.0 mV
- h (Hill coefficient) ([1]; Hill fit, mean ± SD): 1.95 ± 0.44
- IC50 ([1]; IC50, Hill fit of ΔV1/2 vs concentration, all parameters free, mean ± SD): 25.1 ± 2.7 µM
- Inverse agonist behavior on HCN1 gating (in words) [1]: partial inverse agonist
- Aqueous solubility limit ([3]; ref https://comptox.epa.gov/dashboard DTXSID5061401): ~ 10 mM

SMILES: CCC(C)C1CCCC(C(C)CC)C1O (stereo not drawn) [DSB-CH, 2,6-di-sec-butyl cyclohexanol]
- IC50 (in words) [1]: ill-defined
- Association constant to closed channels (KC, QC, JC) [7]: no effect
- Association constant to open channels (KO, QO, JO) [7]: no effect

SMILES: CC1CCCC(C)C1O (stereo not drawn) [DM-CH, 2,6-di-methyl cyclohexanol]
- IC50 (in words) [1]: ill-defined

SMILES: CC(C)(C)c1cccc(C(C)(C)C)c1O [DTB-P, 2,6-di-tert-butyl phenol]
- Anti-hyperalgesia [2]: mechanical and thermal anti-hyperalgesia
- IC50 [1]: 4.8 ± 0.8 µM
- ΔV1/2 max [1, 10]: −42.4 ± 2.8 mV
- h (Hill coefficient) ([1]; Hill fit, mean ± SD): 0.97 ± 0.13
- Shift in the V1/2 of HCN1 gating ([1]; at the highest concentrations): ~ −40 mV
- Increase of solubility by 2-hydroxypropyl-β-cyclodextrin (HPβCD) [3]: ≥ 200 fold
- Activity at GABAA receptors [8]: minimal activity
- Effect on open channel probability (Po) of α3β glycine receptors [9]: increases open channel probability
